Tests used:
[1] = biological target: Wee1-like protein kinase (Homo sapiens) (UniProt P30291); details: Compound concentration 1000.0 nM
[2] = biological target: Megakaryocyte-associated tyrosine-protein kinase (Homo sapiens) (UniProt P42679); details: Compound concentration 1000.0 nM
[3] = biological target: MAP kinase-activated protein kinase 2 (Homo sapiens) (UniProt P49137); details: Compound concentration 1000.0 nM
[4] = biological target: Serine/threonine-protein kinase DCLK2 (Homo sapiens) (UniProt Q8N568); details: Compound concentration 1000.0 nM
[5] = tested on: ALK tyrosine kinase receptor (Homo sapiens), Q9UM73 [C1156Y]; details: Compound concentration 1000.0 nM
[6] = biological target: Receptor-type tyrosine-protein kinase FLT3 (Homo sapiens) (UniProt P36888); details: Compound concentration 1000.0 nM
[7] = biological target: Hormonally up-regulated neu tumor-associated kinase (Homo sapiens) (UniProt P57058); details: Compound concentration 1000.0 nM
[8] = biological target: Mitogen-activated protein kinase kinase kinase 5 (Homo sapiens) (UniProt Q99683); details: Compound concentration 1000.0 nM
[9] = biological target: Serine/threonine-protein kinase B-raf (Homo sapiens) (UniProt P15056); details: Compound concentration 1000.0 nM
Serine/threonine-protein kinase B-raf (Homo sapiens), sequence (P15056 whole entry): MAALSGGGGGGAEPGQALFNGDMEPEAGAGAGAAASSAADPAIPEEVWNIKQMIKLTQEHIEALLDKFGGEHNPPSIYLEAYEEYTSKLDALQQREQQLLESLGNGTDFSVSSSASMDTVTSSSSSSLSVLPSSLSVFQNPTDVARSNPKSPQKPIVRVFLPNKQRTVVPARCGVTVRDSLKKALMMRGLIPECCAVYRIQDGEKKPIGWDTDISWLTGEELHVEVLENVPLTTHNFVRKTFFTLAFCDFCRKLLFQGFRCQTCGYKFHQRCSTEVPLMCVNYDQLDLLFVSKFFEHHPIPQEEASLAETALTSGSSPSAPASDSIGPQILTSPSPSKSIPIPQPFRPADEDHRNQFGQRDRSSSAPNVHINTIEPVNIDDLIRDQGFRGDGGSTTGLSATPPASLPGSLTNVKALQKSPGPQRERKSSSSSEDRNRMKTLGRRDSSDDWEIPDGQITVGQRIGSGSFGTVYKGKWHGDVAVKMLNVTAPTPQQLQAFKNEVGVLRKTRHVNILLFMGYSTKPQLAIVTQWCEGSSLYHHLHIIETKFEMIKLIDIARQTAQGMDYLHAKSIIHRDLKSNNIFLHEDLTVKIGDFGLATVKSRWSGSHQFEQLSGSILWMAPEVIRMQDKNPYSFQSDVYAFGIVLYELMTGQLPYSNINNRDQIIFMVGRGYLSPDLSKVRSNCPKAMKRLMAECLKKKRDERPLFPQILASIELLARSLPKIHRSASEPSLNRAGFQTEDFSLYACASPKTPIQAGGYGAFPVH

[10] = biological target: Cyclin-dependent kinase 17 (Homo sapiens) (UniProt Q00537); details: Compound concentration 1000.0 nM
Cyclin-dependent kinase 17 (Homo sapiens), sequence (Q00537 whole entry, looked up): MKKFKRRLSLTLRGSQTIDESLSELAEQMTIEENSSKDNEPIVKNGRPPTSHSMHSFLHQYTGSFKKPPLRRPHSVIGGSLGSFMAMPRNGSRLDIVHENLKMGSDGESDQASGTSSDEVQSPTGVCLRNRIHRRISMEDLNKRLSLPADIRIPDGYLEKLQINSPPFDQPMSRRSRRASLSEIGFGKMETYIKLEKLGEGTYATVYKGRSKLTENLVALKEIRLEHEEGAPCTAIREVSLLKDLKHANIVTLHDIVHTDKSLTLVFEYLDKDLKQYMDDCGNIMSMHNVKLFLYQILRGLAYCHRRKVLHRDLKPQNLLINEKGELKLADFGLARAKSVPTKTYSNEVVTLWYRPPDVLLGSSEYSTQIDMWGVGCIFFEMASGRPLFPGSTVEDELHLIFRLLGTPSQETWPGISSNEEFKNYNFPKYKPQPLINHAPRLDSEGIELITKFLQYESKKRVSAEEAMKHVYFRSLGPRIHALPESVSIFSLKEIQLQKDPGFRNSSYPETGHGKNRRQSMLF

[11] = biological target: Ephrin type-A receptor 1 (Homo sapiens) (UniProt P21709); details: Compound concentration 1000.0 nM
[12] = biological target: Tyrosine-protein kinase Fgr (Homo sapiens) (UniProt P09769); details: Compound concentration 1000.0 nM
[13] = biological target: Muscle, skeletal receptor tyrosine-protein kinase (Homo sapiens) (UniProt O15146); details: Compound concentration 1000.0 nM
[14] = biological target: Ribosomal protein S6 kinase alpha-4 (Homo sapiens) (UniProt O75676); details: Compound concentration 1000.0 nM
[15] = biological target: Sigma non-opioid intracellular receptor 1 (Homo sapiens) (UniProt Q99720); details: Compound concentration 10.0 uM
Sigma non-opioid intracellular receptor 1 (Homo sapiens), sequence (Q99720 whole entry): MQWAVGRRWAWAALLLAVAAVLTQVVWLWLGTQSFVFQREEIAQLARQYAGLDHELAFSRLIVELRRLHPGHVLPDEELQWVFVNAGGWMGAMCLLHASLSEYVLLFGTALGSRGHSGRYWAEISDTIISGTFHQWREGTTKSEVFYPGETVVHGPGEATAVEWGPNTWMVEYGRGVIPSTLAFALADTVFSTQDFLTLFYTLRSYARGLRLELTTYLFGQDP

[16] = biological target: Serine/threonine-protein kinase VRK2 (Homo sapiens) (UniProt Q86Y07); details: Compound concentration 1000.0 nM
Serine/threonine-protein kinase VRK2 (Homo sapiens), sequence (Q86Y07 whole entry): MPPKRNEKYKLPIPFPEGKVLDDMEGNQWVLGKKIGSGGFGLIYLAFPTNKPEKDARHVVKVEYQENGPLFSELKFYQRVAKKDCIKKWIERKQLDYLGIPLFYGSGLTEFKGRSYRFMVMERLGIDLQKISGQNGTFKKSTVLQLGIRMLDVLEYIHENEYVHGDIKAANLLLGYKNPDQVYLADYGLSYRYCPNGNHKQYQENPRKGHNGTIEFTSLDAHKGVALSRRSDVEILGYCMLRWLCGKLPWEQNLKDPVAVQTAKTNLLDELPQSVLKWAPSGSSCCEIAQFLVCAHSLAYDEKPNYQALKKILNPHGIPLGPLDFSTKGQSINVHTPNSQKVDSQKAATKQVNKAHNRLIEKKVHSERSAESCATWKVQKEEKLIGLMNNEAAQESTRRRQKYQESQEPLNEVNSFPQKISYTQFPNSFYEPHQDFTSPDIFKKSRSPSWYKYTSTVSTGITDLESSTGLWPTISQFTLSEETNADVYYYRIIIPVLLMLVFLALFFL

[17] = biological target: Glycogen synthase kinase-3 alpha (Homo sapiens) (UniProt P49840); details: Compound concentration 1000.0 nM
[18] = biological target: Cyclin-dependent kinase-like 1 (Homo sapiens) (UniProt Q00532); details: Compound concentration 1000.0 nM
[19] = tested on: Phosphatidylinositol 4,5-bisphosphate 3-kinase catalytic subunit alpha isoform (Homo sapiens), P42336 [H1047L]; details: Compound concentration 1000.0 nM
[20] = biological target: Phosphatidylinositol 4-kinase beta (Homo sapiens) (UniProt Q9UBF8); details: Compound concentration 1000.0 nM
[21] = biological target: Ephrin type-A receptor 3 (Homo sapiens) (UniProt P29320); details: Compound concentration 1000.0 nM
[22] = biological target: Mitogen-activated protein kinase 6 (Homo sapiens) (UniProt Q16659); details: Compound concentration 1000.0 nM
[23] = biological target: Ephrin type-B receptor 1 (Homo sapiens) (UniProt P54762); details: Compound concentration 1000.0 nM
Ephrin type-B receptor 1 (Homo sapiens), sequence (P54762 whole entry): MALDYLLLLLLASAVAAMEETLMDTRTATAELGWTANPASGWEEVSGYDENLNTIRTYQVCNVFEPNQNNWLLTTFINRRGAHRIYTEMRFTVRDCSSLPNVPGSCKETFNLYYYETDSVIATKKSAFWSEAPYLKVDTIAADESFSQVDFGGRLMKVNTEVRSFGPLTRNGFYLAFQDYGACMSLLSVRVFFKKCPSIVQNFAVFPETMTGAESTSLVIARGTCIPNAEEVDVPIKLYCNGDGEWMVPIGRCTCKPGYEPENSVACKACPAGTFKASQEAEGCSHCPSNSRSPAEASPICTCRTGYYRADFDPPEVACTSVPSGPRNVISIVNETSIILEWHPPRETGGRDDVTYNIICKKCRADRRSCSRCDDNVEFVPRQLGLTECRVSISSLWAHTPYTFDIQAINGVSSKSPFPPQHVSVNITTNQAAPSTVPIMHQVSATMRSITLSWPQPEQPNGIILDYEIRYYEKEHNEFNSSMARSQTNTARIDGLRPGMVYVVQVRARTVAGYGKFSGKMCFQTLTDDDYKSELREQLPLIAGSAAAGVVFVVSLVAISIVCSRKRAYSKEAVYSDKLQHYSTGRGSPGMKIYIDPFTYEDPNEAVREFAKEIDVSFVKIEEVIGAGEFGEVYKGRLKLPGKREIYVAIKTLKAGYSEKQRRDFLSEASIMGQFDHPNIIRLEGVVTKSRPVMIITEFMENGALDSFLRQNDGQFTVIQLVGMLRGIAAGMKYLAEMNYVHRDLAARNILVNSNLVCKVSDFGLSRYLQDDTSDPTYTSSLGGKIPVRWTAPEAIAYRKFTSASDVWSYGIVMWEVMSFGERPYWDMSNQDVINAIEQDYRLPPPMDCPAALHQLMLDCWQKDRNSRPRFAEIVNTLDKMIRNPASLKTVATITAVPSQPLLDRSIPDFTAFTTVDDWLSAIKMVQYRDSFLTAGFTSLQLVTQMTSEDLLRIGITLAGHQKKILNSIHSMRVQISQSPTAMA

[24] = biological target: Serine/threonine-protein kinase 38 (Homo sapiens) (UniProt Q15208); details: Compound concentration 1000.0 nM
[25] = tested on: Tyrosine-protein kinase ABL1 (Homo sapiens), P00519 [F317L]; details: Compound concentration 1000.0 nM
[26] = biological target: Serine/threonine-protein kinase MRCK beta (Homo sapiens) (UniProt Q9Y5S2); details: Compound concentration 1000.0 nM
[27] = biological target: Casein kinase I isoform gamma-2 (Homo sapiens) (UniProt P78368); details: Compound concentration 1000.0 nM
Casein kinase I isoform gamma-2 (Homo sapiens), sequence (P78368 whole entry, looked up, canonical isoform): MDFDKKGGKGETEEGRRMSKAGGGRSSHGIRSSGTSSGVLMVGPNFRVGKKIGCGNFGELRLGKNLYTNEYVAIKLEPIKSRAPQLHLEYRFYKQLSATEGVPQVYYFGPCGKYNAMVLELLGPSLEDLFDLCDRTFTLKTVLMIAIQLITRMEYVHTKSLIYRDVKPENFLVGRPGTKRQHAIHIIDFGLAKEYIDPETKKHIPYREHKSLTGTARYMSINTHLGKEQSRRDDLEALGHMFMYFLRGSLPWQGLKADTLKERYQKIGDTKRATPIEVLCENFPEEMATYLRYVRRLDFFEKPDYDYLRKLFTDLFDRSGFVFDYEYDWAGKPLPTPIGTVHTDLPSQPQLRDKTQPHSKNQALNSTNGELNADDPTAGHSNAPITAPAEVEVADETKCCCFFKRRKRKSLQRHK

[28] = biological target: Serine/threonine-protein kinase PAK 1 (Homo sapiens) (UniProt Q13153); details: Compound concentration 1000.0 nM
[29] = biological target: Calcium/calmodulin-dependent protein kinase type 1D (Homo sapiens) (UniProt Q8IU85); details: Compound concentration 1000.0 nM
[30] = biological target: Tyrosine-protein kinase ITK/TSK (Homo sapiens) (UniProt Q08881); details: Compound concentration 1000.0 nM
[31] = biological target: Casein kinase I isoform delta (Homo sapiens) (UniProt P48730); details: Compound concentration 1000.0 nM
[32] = biological target: Beta-2 adrenergic receptor (Homo sapiens) (UniProt P07550); details: Compound concentration 10.0 uM
[33] = biological target: Mitogen-activated protein kinase 13 (Homo sapiens) (UniProt O15264); details: Compound concentration 1000.0 nM
[34] = biological target: Mitogen-activated protein kinase kinase kinase kinase 4 (Homo sapiens) (UniProt O95819); details: Compound concentration 1000.0 nM
[35] = biological target: Mitogen-activated protein kinase kinase kinase kinase 5 (Homo sapiens) (UniProt Q9Y4K4); details: Compound concentration 1000.0 nM
Mitogen-activated protein kinase kinase kinase kinase 5 (Homo sapiens), sequence (Q9Y4K4 whole entry, looked up): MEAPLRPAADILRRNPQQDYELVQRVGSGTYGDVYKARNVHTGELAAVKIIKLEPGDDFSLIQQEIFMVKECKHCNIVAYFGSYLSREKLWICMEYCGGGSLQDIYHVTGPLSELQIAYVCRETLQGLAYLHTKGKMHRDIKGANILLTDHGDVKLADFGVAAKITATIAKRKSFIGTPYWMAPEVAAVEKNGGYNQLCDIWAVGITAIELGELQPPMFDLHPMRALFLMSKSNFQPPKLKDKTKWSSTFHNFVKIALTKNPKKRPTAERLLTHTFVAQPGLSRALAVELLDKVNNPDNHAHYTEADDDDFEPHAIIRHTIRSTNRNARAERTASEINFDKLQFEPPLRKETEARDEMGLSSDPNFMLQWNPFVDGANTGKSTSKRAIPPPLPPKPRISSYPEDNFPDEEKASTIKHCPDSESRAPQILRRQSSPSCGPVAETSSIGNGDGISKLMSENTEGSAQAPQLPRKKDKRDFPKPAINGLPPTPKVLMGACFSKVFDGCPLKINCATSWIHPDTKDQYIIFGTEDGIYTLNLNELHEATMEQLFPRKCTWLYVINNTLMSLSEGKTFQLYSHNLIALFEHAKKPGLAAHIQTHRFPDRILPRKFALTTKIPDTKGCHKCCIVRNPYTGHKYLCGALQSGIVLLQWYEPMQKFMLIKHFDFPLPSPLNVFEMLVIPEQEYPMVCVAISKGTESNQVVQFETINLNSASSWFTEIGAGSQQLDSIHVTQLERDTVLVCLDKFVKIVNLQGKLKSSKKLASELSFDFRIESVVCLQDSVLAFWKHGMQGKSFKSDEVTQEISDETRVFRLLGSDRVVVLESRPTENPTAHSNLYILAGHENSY

[36] = biological target: Tyrosine-protein kinase JAK2 (Homo sapiens) (UniProt O60674); details: Compound concentration 1000.0 nM
[37] = biological target: Dual serine/threonine and tyrosine protein kinase (Homo sapiens) (UniProt Q6XUX3); details: Compound concentration 1000.0 nM
[38] = tested on: Proto-oncogene tyrosine-protein kinase receptor Ret (Homo sapiens), P07949 [V804L]; details: Compound concentration 1000.0 nM
[39] = biological target: Myosin-IIIb (Homo sapiens) (UniProt Q8WXR4); details: Compound concentration 1000.0 nM
[40] = biological target: Testis-specific serine/threonine-protein kinase 3 (Homo sapiens) (UniProt Q96PN8); details: Compound concentration 1000.0 nM
[41] = biological target: Discoidin domain-containing receptor 2 (Homo sapiens) (UniProt Q16832); details: Compound concentration 1000.0 nM
[42] = biological target: Serine/threonine-protein kinase PAK 3 (Homo sapiens) (UniProt O75914); details: Compound concentration 1000.0 nM
Serine/threonine-protein kinase PAK 3 (Homo sapiens), sequence (O75914 whole entry, looked up): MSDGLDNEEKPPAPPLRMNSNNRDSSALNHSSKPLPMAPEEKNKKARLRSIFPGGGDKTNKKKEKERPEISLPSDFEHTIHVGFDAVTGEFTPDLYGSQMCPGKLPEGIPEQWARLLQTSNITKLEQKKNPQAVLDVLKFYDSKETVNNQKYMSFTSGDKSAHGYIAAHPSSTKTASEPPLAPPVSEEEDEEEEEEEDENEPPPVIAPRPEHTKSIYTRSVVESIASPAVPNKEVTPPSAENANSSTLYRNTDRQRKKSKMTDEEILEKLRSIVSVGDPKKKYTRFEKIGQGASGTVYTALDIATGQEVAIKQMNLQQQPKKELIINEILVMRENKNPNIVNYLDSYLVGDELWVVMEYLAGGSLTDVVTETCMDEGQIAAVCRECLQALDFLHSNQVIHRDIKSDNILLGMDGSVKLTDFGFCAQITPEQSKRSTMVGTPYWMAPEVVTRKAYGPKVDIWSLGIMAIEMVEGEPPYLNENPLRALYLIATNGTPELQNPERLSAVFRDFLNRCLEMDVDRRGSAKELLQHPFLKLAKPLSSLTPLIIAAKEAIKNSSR

[43] = biological target: Tyrosine-protein kinase Tec (Homo sapiens) (UniProt P42680); details: Compound concentration 1000.0 nM
[44] = tested on: Receptor-type tyrosine-protein kinase FLT3 (Homo sapiens), P36888 [K663Q]; details: Compound concentration 1000.0 nM
[45] = biological target: Mitogen-activated protein kinase 9 (Homo sapiens) (UniProt P45984); details: Compound concentration 1000.0 nM

CS(=O)(=O)NCC[C@H](NC(=O)c1cncc2c1cnn2-c1ccc(F)cc1)c1ccnc(S(C)(=O)=O)c1 [BI 9307]
inactive: residual activity [1] 99% | residual activity [2] 100% | residual activity [3] 100% | residual activity [4] 100% | residual activity [5] 100% | residual activity [6] 93% | residual activity [7] 100% | residual activity [8] 96% | residual activity [9] 79% | residual activity [10] 100% | residual activity [11] 100% | residual activity [12] 100% | residual activity [13] 100% | residual activity [14] 100% | inhibition [15] 7.62% | residual activity [16] 100% | residual activity [17] 100% | residual activity [18] 84% | residual activity [19] 77% | residual activity [20] 100% | residual activity [21] 87% | residual activity [22] 100% | residual activity [23] 88% | residual activity [24] 100% | residual activity [25] 69% | residual activity [26] 95% | residual activity [27] 89% | residual activity [28] 88% | residual activity [29] 98% | residual activity [30] 99% | residual activity [31] 100% | inhibition [32] -5.93% | residual activity [33] 100% | residual activity [34] 86% | residual activity [35] 83% | residual activity [36] 100% | residual activity [37] 98% | residual activity [38] 100% | residual activity [39] 100% | residual activity [40] 100% | residual activity [41] 100% | residual activity [42] 100% | residual activity [43] 96% | residual activity [44] 100% | residual activity [45] 86%

CS(=O)(=O)c1cc(C2(NC(=O)c3cncc4c3cnn4-c3ccc(F)cc3)CC2)ccn1 [BI 639667]
inactive: residual activity [1] 100% | residual activity [2] 100% | residual activity [3] 100% | residual activity [4] 100% | residual activity [5] 100% | residual activity [6] 100% | residual activity [7] 100% | residual activity [8] 97% | residual activity [9] 87% | residual activity [10] 79% | residual activity [11] 100% | residual activity [12] 100% | residual activity [13] 68% | residual activity [14] 81% | inhibition [15] 26.4% | residual activity [16] 100% | residual activity [17] 70% | residual activity [18] 69% | residual activity [19] 100% | residual activity [20] 96% | residual activity [21] 90% | residual activity [22] 100% | residual activity [23] 91% | residual activity [24] 100% | residual activity [25] 68% | residual activity [26] 100% | residual activity [27] 100% | residual activity [28] 100% | residual activity [29] 90% | residual activity [30] 89% | residual activity [31] 99% | inhibition [32] -7.76% | residual activity [33] 93% | residual activity [34] 88% | residual activity [35] 98% | residual activity [36] 100% | residual activity [37] 70% | residual activity [38] 100% | residual activity [39] 100% | residual activity [40] 100% | residual activity [41] 100% | residual activity [42] 100% | residual activity [43] 99% | residual activity [44] 100% | residual activity [45] 100%
